Experimental data from PubChem BioAssay AID1845210 (Molecular Pharmacology Branch, DTP, NCI, 2023).

Test system: NCI-H226 complex tumor spheroids, viability
Assay: Anticancer human tumor NCI-H226 cell line growth inhibition;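 further: spheroids exposed to compound for 7 days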;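 on viability, T/C: 100% = DMSO vehicle control viability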
Details: for IC50: curve of first compound; for viability, T/C: stronger effect = lower value
Excerpt: Multicellular complex tumor spheroid response to DNA repair inhibitors in combination with DNA-damaging drugs
This study explores the anticancer activities of DNA-damaging drugs and inhibitors of DNA damage repair, both as single agents and in combinations. Complex tumor spheroids comprised of malignant cells, endothelial cells and mesenchymal stem cells served as an in vitro model for human solid tumors. This model system incorporates physiologically relevant features and patient-derived or established malignant cell lines with clinically relevant genetic alterations from many tumor types. Twenty-six patient-derived or established malignant cell lines were evaluated representing sarcoma, melanoma, small cell lung cancer (SCLC), non-small cell lung cancer (NSCLC), as well as bladder, ovarian and pancreatic cancers. The concentration ranges selected for each drug and investigational agent were based upon clinically achievable concentrations if the clinical Cmax of the agent was known.
Compounds. The drugs and compounds olaparib (NSC753686), talazoparib (NSC767125), berzosertib (NSC777718), elimusertib (NSC800525), nedisertib (NSC802822), VX-984 (NSC792969), AZD-1390 (NSC803789), temozolomide (NSC362856), topotecan (NSC609699), trabectedin (NSC813783), staurosporine (NSC755774), and gemcitabine (NSC613327) were obtained from the National Cancer Institute (NCI) Developmental Therapeutics Program Chemical Repository. The FDA-approved anticancer drug set is available from the Developmental Therapeutics Program at https://dtp.cancer.gov/organization/dscb/obtaining/available_plates.htm. […] The stock solutions were prepared in dimethyl sulfoxide (DMSO, Sigma-Aldrich, St. Louis, MO, cat. D2650) at 400-fold the tested concentration and stored at -70 degrees C. Prior to their use, the stock solutions were diluted in fresh medium and the final DMSO concentration in the assay was 0.25% (v/v). All drugs and investigational agents were tested over a range starting from a high concentration at or near the clinical Cmax and decreasing in half-log increments. If the clinical Cmax for an agent had not been determined, the highest concentration tested was 10 microM.
Cell Lines. The patient-derived cancer cell (PDC) lines: 156681-154-R-J1-PDC, 283228-195-R-J1-PDC, 287954-098-R-J1-PDC, 292921-168-R-J2-PDC, 349418-098-R-PDC, 425362-245-T-J1-PDC, 556581-035-R-J1-PDC, and BL0293-F563-PDC were received from the NCI Patient-Derived Models Repository (PDMR, https://pdmr.cancer.gov). The established cell lines HS-SY-2 (RRID:CVCL_8719), MPNST, and SYO-1 (RRID:CVCL_7146) were obtained from the Sloan Kettering Institute. The alveolar soft parts sarcoma cell line ASPS-1 (RRID:CVCL_S738) was established at the NCI and grown from internal seed stocks. The following established cell lines were purchased from the American Type Culture Collection (ATCC, Manassas, VA): G-401 (ATCC, cat. CRL-1441, RRID:CVCL_0270), SW982 (ATCC, cat. HTB-93, RRID:CVCL_1734), VA-ES-BJ (ATCC, cat. CRL-2138, RRID:CVCL_1785), NCI-H719 (ATCC, cat. CRL-5837, RRID:CVCL_1582), NCI-H196 (ATCC, cat. CRL-5823, RRID:CVCL_1509), NCI-H841 (ATCC, cat. CRL-5845, RRID:CVCL_1595), NCI-H1618 (ATCC, cat. CRL-5879, RRID:CVCL_1480), NCI-H1876 (ATCC, cat. CRL-5902, RRID:CVCL_1503), DMS 114 (ATCC, cat. CRL-2066; RRID:CVCL_1174), NCI-H211 (ATCC, cat. CRL-5824; RRID:CVCL_1529), and SW 1271 (ATCC, cat. CRL-2177, RRID:CVCL_1716). The small cell lung cancer cell line COR-L88 was purchased from Sigma-Aldrich (cat. 92031917-1VL, RRID:CVCL_1141). The non-small cell lung cancer cell lines NCI-H226 (RRID:CVCL_1544) and NCI-H322M (RRID:CVCL_1557) were established at the NCI and grown from internal seed stocks. Pooled donor human umbilical vein endothelial cells (HUVEC, Lonza, cat. CC-2519) and human mesenchymal stem cells (hMSC, Lonza, cat. PT-2501) were purchased from Lonza (Walkersville, MD).
Cell Culture. All cells were maintained in an incubator at 37 degrees C and 5% CO2 with 95% humidity. […]

Q: Which IC50 (second compound 1 µM) does the source give for `Cn1ncnc1[C@H]1c2n[nH]c(=O)c3cc(F)cc(c23)N[C@@H]1c1ccc(F)cc1` + Cn1nnc2c(C(N)=O)ncn2c1=O here?
A: Its IC50 is greater than 3 µM.

Q: What about the IC50 (second compound 3.16 µM) of the same molecule?
A: Its IC50 is greater than 3 µM.

Q: And the IC50 (second compound 10 µM)?
A: Its IC50 is greater than 3 µM.

Q: And the IC50 (second compound 31.6 µM)?
A: The IC50 was greater than 3 µM.

Q: And the IC50 (second compound 100 µM)?
A: Its IC50 is greater than 3 µM.

Q: And the viability, T/C (second compound 1 µM, first compound 0.00949 µM)?
A: The viability, T/C was 101%.

Q: What about the viability, T/C (second compound 1 µM, first compound 0.03 µM) of the same molecule?
A: Its viability, T/C is 103%.

Q: What about the viability, T/C (second compound 1 µM, first compound 0.0949 µM) of the same molecule?
A: The viability, T/C was 99.4%.

Q: And the viability, T/C (second compound 1 µM, first compound 0.3 µM)?
A: The viability, T/C was 91.2%.

Q: What about the viability, T/C (second compound 1 µM, first compound 0.949 µM) of the same molecule?
A: Its viability, T/C is 85.8%.

Q: And the viability, T/C (second compound 1 µM, first compound 3 µM)?
A: Its viability, T/C is 97.8%.

Q: What about the viability, T/C (second compound 3.16 µM, first compound 0.00949 µM) of the same molecule?
A: The viability, T/C was 105%.

Q: What about the viability, T/C (second compound 3.16 µM, first compound 0.03 µM) of the same molecule?
A: Its viability, T/C is 55.1%.

Q: And the viability, T/C (second compound 3.16 µM, first compound 0.0949 µM)?
A: Its viability, T/C is 94.8%.

Q: And the viability, T/C (second compound 3.16 µM, first compound 0.3 µM)?
A: Its viability, T/C is 85.6%.

Q: And the viability, T/C (second compound 3.16 µM, first compound 0.949 µM)?
A: The viability, T/C was 93.1%.

Q: And the viability, T/C (second compound 3.16 µM, first compound 3 µM)?
A: Its viability, T/C is 105%.

Q: What about the viability, T/C (second compound 10 µM, first compound 0.00949 µM) of the same molecule?
A: Its viability, T/C is 108%.

Q: What about the viability, T/C (second compound 10 µM, first compound 0.03 µM) of the same molecule?
A: The viability, T/C was 89.9%.

Q: What about the viability, T/C (second compound 10 µM, first compound 0.0949 µM) of the same molecule?
A: Its viability, T/C is 86.8%.

Q: And the viability, T/C (second compound 10 µM, first compound 0.3 µM)?
A: The viability, T/C was 88.6%.

Q: What about the viability, T/C (second compound 10 µM, first compound 0.949 µM) of the same molecule?
A: Its viability, T/C is 89.5%.

Q: What about the viability, T/C (second compound 10 µM, first compound 3 µM) of the same molecule?
A: Its viability, T/C is 97.5%.

Q: And the viability, T/C (second compound 31.6 µM, first compound 0.00949 µM)?
A: The viability, T/C was 101%.

Q: What about the viability, T/C (second compound 31.6 µM, first compound 0.03 µM) of the same molecule?
A: The viability, T/C was 95.2%.

Q: And the viability, T/C (second compound 31.6 µM, first compound 0.0949 µM)?
A: The viability, T/C was 96.4%.

Q: What about the viability, T/C (second compound 31.6 µM, first compound 0.3 µM) of the same molecule?
A: Its viability, T/C is 91.8%.

Q: What about the viability, T/C (second compound 31.6 µM, first compound 0.949 µM) of the same molecule?
A: The viability, T/C was 82.3%.

Q: And the viability, T/C (second compound 31.6 µM, first compound 3 µM)?
A: Its viability, T/C is 90.7%.

Q: What about the viability, T/C (second compound 100 µM, first compound 0.00949 µM) of the same molecule?
A: The viability, T/C was 106%.

Q: What about the viability, T/C (second compound 100 µM, first compound 0.03 µM) of the same molecule?
A: Its viability, T/C is 108%.

Q: What about the viability, T/C (second compound 100 µM, first compound 0.0949 µM) of the same molecule?
A: The viability, T/C was 95.8%.

Q: And the viability, T/C (second compound 100 µM, first compound 0.3 µM)?
A: The viability, T/C was 87.1%.

Q: What about the viability, T/C (second compound 100 µM, first compound 0.949 µM) of the same molecule?
A: Its viability, T/C is 100%.

Q: What about the viability, T/C (second compound 100 µM, first compound 3 µM) of the same molecule?
A: Its viability, T/C is 93.5%.

Q: Which IC50 (second compound 0.003 µM) does the source give for `Cn1ncnc1[C@H]1c2n[nH]c(=O)c3cc(F)cc(c23)N[C@@H]1c1ccc(F)cc1` + CC[C@@]1(O)C(=O)OCc2c1cc1n(c2=O)Cc2cc3c(CN(C)C)c(O)ccc3nc2-1 here?
A: The IC50 was greater than 3 µM.

Q: What about the IC50 (second compound 0.00949 µM) of the same molecule?
A: Its IC50 is greater than 3 µM.

Q: And the IC50 (second compound 0.03 µM)?
A: Its IC50 is greater than 3 µM.

Q: What about the IC50 (second compound 0.0949 µM) of the same molecule?
A: The IC50 was greater than 3 µM.

Q: What about the IC50 (second compound 0.3 µM) of the same molecule?
A: Its IC50 is greater than 3 µM.

Q: What about the viability, T/C (second compound 0.003 µM, first compound 0.00949 µM) of the same molecule?
A: Its viability, T/C is 102%.

Q: What about the viability, T/C (second compound 0.003 µM, first compound 0.03 µM) of the same molecule?
A: The viability, T/C was 87.8%.

Q: What about the viability, T/C (second compound 0.003 µM, first compound 0.0949 µM) of the same molecule?
A: The viability, T/C was 88.7%.

Q: What about the viability, T/C (second compound 0.003 µM, first compound 0.3 µM) of the same molecule?
A: Its viability, T/C is 82.4%.

Q: What about the viability, T/C (second compound 0.003 µM, first compound 0.949 µM) of the same molecule?
A: The viability, T/C was 93.7%.

Q: What about the viability, T/C (second compound 0.003 µM, first compound 3 µM) of the same molecule?
A: Its viability, T/C is 98.7%.

Q: What about the viability, T/C (second compound 0.00949 µM, first compound 0.00949 µM) of the same molecule?
A: Its viability, T/C is 84.4%.

Q: What about the viability, T/C (second compound 0.00949 µM, first compound 0.03 µM) of the same molecule?
A: The viability, T/C was 106%.

Q: What about the viability, T/C (second compound 0.00949 µM, first compound 0.0949 µM) of the same molecule?
A: The viability, T/C was 88.3%.

Q: What about the viability, T/C (second compound 0.00949 µM, first compound 0.3 µM) of the same molecule?
A: The viability, T/C was 95.2%.

Q: What about the viability, T/C (second compound 0.00949 µM, first compound 0.949 µM) of the same molecule?
A: Its viability, T/C is 82.6%.

Q: And the viability, T/C (second compound 0.00949 µM, first compound 3 µM)?
A: Its viability, T/C is 91.6%.

Q: What about the viability, T/C (second compound 0.03 µM, first compound 0.00949 µM) of the same molecule?
A: The viability, T/C was 89.4%.

Q: What about the viability, T/C (second compound 0.03 µM, first compound 0.03 µM) of the same molecule?
A: The viability, T/C was 80.1%.

Q: And the viability, T/C (second compound 0.03 µM, first compound 0.0949 µM)?
A: The viability, T/C was 92.2%.

Q: And the viability, T/C (second compound 0.03 µM, first compound 0.3 µM)?
A: The viability, T/C was 79.9%.

Q: And the viability, T/C (second compound 0.03 µM, first compound 0.949 µM)?
A: Its viability, T/C is 91.1%.

Q: And the viability, T/C (second compound 0.03 µM, first compound 3 µM)?
A: Its viability, T/C is 91.9%.

Q: And the viability, T/C (second compound 0.0949 µM, first compound 0.00949 µM)?
A: Its viability, T/C is 70.8%.

Q: What about the viability, T/C (second compound 0.0949 µM, first compound 0.03 µM) of the same molecule?
A: The viability, T/C was 73.5%.

Q: And the viability, T/C (second compound 0.0949 µM, first compound 0.0949 µM)?
A: Its viability, T/C is 66.1%.

Q: What about the viability, T/C (second compound 0.0949 µM, first compound 0.3 µM) of the same molecule?
A: Its viability, T/C is 72.2%.

Q: And the viability, T/C (second compound 0.0949 µM, first compound 0.949 µM)?
A: Its viability, T/C is 69.2%.

Q: What about the viability, T/C (second compound 0.0949 µM, first compound 3 µM) of the same molecule?
A: Its viability, T/C is 77.8%.

Q: And the viability, T/C (second compound 0.3 µM, first compound 0.00949 µM)?
A: The viability, T/C was 60.5%.

Q: What about the viability, T/C (second compound 0.3 µM, first compound 0.03 µM) of the same molecule?
A: The viability, T/C was 59%.

Q: What about the viability, T/C (second compound 0.3 µM, first compound 0.0949 µM) of the same molecule?
A: Its viability, T/C is 58.9%.

Q: And the viability, T/C (second compound 0.3 µM, first compound 0.3 µM)?
A: The viability, T/C was 56.5%.

Q: And the viability, T/C (second compound 0.3 µM, first compound 0.949 µM)?
A: Its viability, T/C is 59.2%.

Q: And the viability, T/C (second compound 0.3 µM, first compound 3 µM)?
A: Its viability, T/C is 66.9%.
